Test results from paper PMC5563081, “Modulating Protein-Protein Interactions of the Mitotic Polo-like Kinases to Target Mutant KRAS” (Cell Chemical Biology, 2017).
“And” between values parts separate entries of the source, which are not always exact repeats. Equal entries are not always repeated. Where two headings read alike, the source gives them in different places.

How the values were obtained:
NEK1 = target: T1, NEK1 (Homo sapiens, UniProt Q96PY6); experiment: DiscoverX KINOMEscan; assay type: binding; details: read-out: % Control
T1 construct: purchased DiscoverX KINOMEscan
Description: (§1) A panel of 55 proteins (comprising 51 human kinases structurally or functionally related to the PLKs, plus the kinase catalytic domains of PLK1, PLK2, PLK3 and PLK4) were selected for testing by DiscoverX using the KINOMEscan assay platform. Compounds were supplied as 40x DMSO stocks and were tested at a final concentration of 50μM for Poloppin and 5μM for Poloppin-II. Binding interactions were reported as percentage of control where lower numbers indicate stronger binding. A cut-off of <35% was applied to report significant binding.

NEK3 = target: T2, NEK3 (Homo sapiens, UniProt P51956); experiment: DiscoverX KINOMEscan; assay type: binding; details: read-out: % Control
T2 construct: purchased DiscoverX KINOMEscan
Description: as §1

WNK1 = target: T3, WNK1 (Homo sapiens, UniProt Q9H4A3); experiment: DiscoverX KINOMEscan; assay type: binding; details: read-out: % Control
T3 construct: purchased DiscoverX KINOMEscan
Description: as §1

NEK5 = target: T4, NEK5 (Homo sapiens, UniProt Q6P3R8); experiment: DiscoverX KINOMEscan; assay type: binding; details: read-out: % Control
T4 construct: purchased DiscoverX KINOMEscan
Description: as §1

IKBKB = target: T5, IKBKB (Homo sapiens, UniProt O14920); experiment: DiscoverX KINOMEscan; assay type: binding; details: read-out: % Control
T5 construct: purchased DiscoverX KINOMEscan
Description: as §1

STK36 = target: T6, STK36 (Homo sapiens, UniProt Q9NRP7); experiment: DiscoverX KINOMEscan; assay type: binding; details: read-out: % Control
T6 construct: purchased DiscoverX KINOMEscan
Description: as §1

EIF2AK4 = target: T7, EIF2AK4 (Homo sapiens, UniProt Q9P2K8, S808G); experiment: DiscoverX KINOMEscan; assay type: binding; details: read-out: % Control
T7 construct: purchased DiscoverX KINOMEscan
Description: as §1

ERN1 = target: T8, ERN1 (Homo sapiens, UniProt O75460); experiment: DiscoverX KINOMEscan; assay type: binding; details: read-out: % Control
T8 construct: purchased DiscoverX KINOMEscan
Description: as §1

PLK1 PBD = PLK1 PBD (Homo sapiens, UniProt P53350); experiment: Fluorescence polarisation (FP) assay, PLK1 PBD; assay type: binding; parameters: PLK1 PBD (aa345-603) 84nM; GST (N, cleaved yes); made in house; host or cells: E. coli C41
Description: (§2) Final concentrations of assay components used in binding assays were as follows: TAMRA-labelled consensus PLK1 PBD binding phosphopeptide, 5-TAMRA-MAGPMQS(pThreonine)PLMGAKK-acid 10nM; PLK1 PBD (aa345-603) 84nM (2.5ng/μl). Assays were carried out in PBS (pH 7.4) plus 0.03% tween. DMSO controls were run alongside all experimental compounds and % inhibition normalised to these controls. Compounds were titrated 2 fold from a top concentration of 250μM giving a maximum final concentration of DMSO in the assay of 0.25%; however the assay can tolerate DMSO up to 5%. Compound and PBD protein were incubated together at 22°C for 1 hour prior to addition of the TAMRA labelled binding phosphopeptide. The total assay volume per well was 45μl. All experiments were performed in NBS black 384-well microtiter plates (Corning). Fluorescence Polarisation (FP) was read using a BMG PheraStar plate reader with a 540/590/590nm FP module and unbound 10nm TAMRA-labelled peptide set to a FP value of 35mP.

PBD domain of human PLK2 = target: T9, PBD domain of human PLK2 (Homo sapiens, UniProt Q9NYY3); experiment: Fluorescence polarisation (FP) assay, PLK2 PBD; assay type: binding
T9 construct: For FP assays using PLK2 PBD (aa356-681), the same procedure was applied; GST (N, cleaved yes); made in house; host or cells: E. coli C41
T9 sequence (Q9NYY3 356-681): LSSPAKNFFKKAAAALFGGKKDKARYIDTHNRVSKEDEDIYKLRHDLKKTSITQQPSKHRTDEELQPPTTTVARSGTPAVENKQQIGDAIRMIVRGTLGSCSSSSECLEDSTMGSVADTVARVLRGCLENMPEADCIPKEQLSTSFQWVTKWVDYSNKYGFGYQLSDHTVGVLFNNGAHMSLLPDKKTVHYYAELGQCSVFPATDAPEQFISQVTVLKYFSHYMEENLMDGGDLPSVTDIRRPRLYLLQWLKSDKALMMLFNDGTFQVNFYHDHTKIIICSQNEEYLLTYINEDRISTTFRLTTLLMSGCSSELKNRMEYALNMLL
Description: as §2
For FP assays using PLK2 PBD (aa356-681), the same procedure was applied except that TAMRA-MAGPMQTS(pThreonine)PKNGAKK was used as the consensus binding phosphopeptide.

[1] = test system: murine pancreatic organoids KRAS WT p53 MUT; experiment: Viability of pancreatic organoids (CellTitre Glo 3D), KRAS WT; assay type: cell-based; details: Mus musculus, read-out: Mean GI50
Description: Organoid cultures were prepared from the pancreas of LSL-Trp53^R172H/+, Pdx-1-Cre (for Kras WT organoids) or LSL-Trp53^R172H/+, LSL-Kras^G12D/+, Pdx-1-Cre (for Kras^G12D organoids KPC3760 and KPC26684) strains ([Hingorani et al., 2005]). Pancreatic ducts were manually picked after tissue mincing and overnight enzymatic digestion with 0.012% (w/v) collagenase XI (Sigma) and 0.012% (w/v) dispase (GIBCO) in DMEM media containing 1% FBS (GIBCO), before seeding in growth-factor-reduced (GFR) Matrigel (BD) ([Boj et al., 2015]).
Pancreatic organoids were extracted and cultured as detailed above ([Boj et al., 2015]). In brief, pancreatic organoids were seeded at 600 cells per well in a 96 well plate and allowed to grow for 7 days with media replenishment on the 3rd day. Full-grown organoids were then treated with compounds for 72h and viability determined using CellTitre Glo 3D assay (Promega). For viability assays with c-MET siRNA, cells were reverse transfected in a 6 cm dish using Dharmafect 1 (GE Dharmacon) per manufacturer’s instructions. On the following day, cells were trypsinised and plated onto 96 well plates or 6 well plates. The 96 well plates were treated with a dose range of compounds or DMSO, and viability was determined via SRB colorimetric assay. Cells in the 6 well plates were collected at the end of experiment to corroborate knockdown of c-MET by Western blotting.

Chain of PLK1 PBD (P53350 345-603): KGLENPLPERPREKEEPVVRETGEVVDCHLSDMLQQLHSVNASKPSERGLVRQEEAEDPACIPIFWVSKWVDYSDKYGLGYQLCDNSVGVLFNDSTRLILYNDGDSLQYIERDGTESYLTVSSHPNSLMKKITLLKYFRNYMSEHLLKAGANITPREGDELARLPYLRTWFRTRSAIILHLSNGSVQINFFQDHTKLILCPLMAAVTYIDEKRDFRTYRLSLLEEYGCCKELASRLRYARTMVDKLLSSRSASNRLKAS
T8 sequence (O75460 19-977): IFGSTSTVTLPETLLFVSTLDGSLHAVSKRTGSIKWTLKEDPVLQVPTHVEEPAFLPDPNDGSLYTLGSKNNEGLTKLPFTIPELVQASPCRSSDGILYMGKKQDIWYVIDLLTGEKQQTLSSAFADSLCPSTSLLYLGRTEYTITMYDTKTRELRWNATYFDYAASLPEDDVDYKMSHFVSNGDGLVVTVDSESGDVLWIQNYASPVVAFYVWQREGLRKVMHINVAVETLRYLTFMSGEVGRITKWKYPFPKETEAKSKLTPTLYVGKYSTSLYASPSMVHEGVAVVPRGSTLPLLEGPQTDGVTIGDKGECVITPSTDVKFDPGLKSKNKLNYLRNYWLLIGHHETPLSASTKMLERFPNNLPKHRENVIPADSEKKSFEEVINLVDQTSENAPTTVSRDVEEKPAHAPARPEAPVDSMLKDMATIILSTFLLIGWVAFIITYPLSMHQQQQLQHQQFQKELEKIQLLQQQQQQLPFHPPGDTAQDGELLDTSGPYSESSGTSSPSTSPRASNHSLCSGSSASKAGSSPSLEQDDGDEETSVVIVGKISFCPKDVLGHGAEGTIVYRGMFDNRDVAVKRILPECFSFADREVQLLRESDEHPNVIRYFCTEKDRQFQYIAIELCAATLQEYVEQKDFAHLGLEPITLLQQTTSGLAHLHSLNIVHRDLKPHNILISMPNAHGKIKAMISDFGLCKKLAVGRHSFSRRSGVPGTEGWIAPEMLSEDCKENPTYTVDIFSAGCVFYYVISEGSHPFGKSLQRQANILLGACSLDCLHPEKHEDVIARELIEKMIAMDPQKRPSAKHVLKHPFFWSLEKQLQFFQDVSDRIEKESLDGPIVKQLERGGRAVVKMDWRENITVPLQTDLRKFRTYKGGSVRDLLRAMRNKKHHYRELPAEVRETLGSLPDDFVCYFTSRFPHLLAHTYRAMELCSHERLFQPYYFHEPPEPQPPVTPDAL
T6 sequence (Q9NRP7 whole entry): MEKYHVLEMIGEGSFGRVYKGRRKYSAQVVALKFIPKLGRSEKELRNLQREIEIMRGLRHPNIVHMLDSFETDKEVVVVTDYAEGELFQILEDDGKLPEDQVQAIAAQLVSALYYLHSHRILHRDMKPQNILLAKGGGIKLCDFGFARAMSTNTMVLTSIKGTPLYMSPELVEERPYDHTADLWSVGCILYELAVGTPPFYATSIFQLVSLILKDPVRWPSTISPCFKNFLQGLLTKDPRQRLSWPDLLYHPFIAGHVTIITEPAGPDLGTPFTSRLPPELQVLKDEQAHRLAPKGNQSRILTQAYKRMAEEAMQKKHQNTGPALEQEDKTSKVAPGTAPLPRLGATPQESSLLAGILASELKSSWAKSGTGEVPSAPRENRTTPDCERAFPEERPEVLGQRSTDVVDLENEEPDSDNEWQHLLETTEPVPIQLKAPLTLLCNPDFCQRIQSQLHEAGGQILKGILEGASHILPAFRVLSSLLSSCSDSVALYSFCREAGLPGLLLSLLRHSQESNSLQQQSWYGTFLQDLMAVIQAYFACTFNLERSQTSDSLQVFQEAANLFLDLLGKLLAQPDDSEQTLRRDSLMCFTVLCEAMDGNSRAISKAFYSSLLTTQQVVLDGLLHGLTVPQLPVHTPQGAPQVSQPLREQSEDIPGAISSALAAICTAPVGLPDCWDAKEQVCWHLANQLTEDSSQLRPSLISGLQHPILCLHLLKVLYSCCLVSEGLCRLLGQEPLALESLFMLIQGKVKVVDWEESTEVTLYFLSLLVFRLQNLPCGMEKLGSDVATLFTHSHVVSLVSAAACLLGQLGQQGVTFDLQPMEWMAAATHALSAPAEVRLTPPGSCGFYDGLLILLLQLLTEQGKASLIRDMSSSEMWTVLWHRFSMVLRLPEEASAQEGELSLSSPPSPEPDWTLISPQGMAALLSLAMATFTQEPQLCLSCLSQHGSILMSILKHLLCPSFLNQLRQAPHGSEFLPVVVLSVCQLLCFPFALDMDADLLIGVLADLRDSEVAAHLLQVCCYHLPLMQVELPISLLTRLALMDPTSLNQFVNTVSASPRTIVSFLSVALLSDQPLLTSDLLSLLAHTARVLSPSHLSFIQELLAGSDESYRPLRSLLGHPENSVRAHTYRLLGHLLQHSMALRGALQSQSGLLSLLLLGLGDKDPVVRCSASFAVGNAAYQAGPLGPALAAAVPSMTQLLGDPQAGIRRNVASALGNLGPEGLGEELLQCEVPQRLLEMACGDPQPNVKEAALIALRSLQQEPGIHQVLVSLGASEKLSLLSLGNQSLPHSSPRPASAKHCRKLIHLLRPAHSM
T5 sequence (O14920 whole entry): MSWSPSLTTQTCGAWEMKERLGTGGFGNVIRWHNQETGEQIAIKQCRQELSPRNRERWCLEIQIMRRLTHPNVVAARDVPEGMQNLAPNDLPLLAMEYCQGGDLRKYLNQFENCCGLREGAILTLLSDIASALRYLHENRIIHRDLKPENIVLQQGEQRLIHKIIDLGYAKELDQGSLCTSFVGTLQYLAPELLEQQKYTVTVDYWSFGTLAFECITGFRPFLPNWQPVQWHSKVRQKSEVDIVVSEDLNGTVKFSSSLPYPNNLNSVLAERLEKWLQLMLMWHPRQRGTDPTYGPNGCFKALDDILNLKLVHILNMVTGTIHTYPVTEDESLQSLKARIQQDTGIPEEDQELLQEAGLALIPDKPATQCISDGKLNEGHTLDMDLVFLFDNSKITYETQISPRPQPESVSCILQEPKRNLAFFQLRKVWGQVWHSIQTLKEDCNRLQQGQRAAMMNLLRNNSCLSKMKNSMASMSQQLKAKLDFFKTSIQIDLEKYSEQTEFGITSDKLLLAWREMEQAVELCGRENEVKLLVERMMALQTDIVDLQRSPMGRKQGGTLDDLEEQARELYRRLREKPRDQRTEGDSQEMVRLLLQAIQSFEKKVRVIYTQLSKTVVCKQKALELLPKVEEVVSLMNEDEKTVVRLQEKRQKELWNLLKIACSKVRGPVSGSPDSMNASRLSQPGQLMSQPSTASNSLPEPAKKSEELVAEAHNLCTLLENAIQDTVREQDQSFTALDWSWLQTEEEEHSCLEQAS
T4 sequence (Q6P3R8 whole entry): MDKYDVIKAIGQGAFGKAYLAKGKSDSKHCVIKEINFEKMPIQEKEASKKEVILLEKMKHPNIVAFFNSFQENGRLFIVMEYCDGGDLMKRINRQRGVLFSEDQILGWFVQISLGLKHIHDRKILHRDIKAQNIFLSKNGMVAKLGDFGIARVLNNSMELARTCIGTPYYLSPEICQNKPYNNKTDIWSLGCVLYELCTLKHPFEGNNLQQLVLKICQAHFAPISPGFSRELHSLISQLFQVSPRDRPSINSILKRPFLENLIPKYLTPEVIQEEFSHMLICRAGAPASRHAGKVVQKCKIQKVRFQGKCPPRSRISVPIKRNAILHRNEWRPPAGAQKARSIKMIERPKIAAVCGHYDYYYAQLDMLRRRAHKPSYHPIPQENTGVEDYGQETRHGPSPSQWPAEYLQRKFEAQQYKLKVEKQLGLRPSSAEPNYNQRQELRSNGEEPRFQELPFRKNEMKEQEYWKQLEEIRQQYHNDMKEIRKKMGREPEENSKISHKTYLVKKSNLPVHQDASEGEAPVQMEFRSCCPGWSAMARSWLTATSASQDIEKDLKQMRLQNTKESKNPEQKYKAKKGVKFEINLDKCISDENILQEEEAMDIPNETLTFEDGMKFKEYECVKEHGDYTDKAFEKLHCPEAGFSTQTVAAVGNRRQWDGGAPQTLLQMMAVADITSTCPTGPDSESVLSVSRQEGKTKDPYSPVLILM
T7 sequence (Q9P2K8 590-1001 S808G limits assumed): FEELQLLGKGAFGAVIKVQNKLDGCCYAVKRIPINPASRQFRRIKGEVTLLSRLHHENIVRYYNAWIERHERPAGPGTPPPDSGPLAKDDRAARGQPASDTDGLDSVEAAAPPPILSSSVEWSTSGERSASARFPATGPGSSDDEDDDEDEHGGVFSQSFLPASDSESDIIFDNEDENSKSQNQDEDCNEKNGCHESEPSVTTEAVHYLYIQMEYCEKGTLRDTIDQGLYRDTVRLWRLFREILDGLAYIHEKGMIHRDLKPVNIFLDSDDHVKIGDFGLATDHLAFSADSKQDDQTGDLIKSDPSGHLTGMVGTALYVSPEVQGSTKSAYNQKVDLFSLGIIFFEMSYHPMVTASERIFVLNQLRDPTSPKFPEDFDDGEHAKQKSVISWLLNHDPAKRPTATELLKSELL
T2 sequence (P51956 whole entry): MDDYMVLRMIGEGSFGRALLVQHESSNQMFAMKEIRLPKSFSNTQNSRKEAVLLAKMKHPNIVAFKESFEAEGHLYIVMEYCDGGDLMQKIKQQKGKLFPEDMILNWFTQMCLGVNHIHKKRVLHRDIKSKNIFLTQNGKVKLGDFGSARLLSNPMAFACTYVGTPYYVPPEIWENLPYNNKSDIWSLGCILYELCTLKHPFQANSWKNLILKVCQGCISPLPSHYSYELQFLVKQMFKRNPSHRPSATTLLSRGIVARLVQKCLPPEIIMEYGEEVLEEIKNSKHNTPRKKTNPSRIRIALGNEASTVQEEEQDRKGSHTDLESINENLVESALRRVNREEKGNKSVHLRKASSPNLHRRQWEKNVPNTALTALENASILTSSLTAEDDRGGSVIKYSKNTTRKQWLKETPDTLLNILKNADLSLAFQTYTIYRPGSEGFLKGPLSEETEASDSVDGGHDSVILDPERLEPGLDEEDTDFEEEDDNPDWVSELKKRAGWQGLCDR

CN(C)CCNC(=O)c1ccc(-c2ccc(-c3ccc(Cl)cc3)n2-c2ccccc2C(F)(F)F)cc1 [Poloppin-II]
remaining binding at 5 µM (NEK1; NEK1, Poloppin-II 5µM, hit <35%): 100%
remaining binding at 5 µM (NEK3; NEK3, Poloppin-II 5µM, hit <35%): 74%
remaining binding at 5 µM (WNK1; WNK1, Poloppin-II 5µM, hit <35%): 97%
remaining binding at 5 µM (NEK5; NEK5, Poloppin-II 5µM, hit <35%): 99%
remaining binding at 5 µM (IKBKB; IKBKB, Poloppin-II 5µM, hit <35%): 100%
remaining binding at 5 µM (STK36; STK36, Poloppin-II 5µM, hit <35%): 91%
remaining binding at 5 µM (EIF2AK4; EIF2AK4, Poloppin-II 5µM, hit <35%): 97%
remaining binding at 5 µM (ERN1; ERN1, Poloppin-II 5µM, hit <35%): 74%
IC50 (PLK1 PBD; read-out: IC50, binding of TAMRA-labeled phosphopeptide to PLK1 PBD): 40.9 µM and 41 µM
IC50 (PBD domain of human PLK2; read-out: IC50, binding of TAMRA-labelled phosphopeptide to PLK2 PBD): 105 µM
GI50 ([1]; organoids KRAS WT p53 MUT, n=2): 102 µM

O=C(O)CCc1ccc(-c2ccc(Br)cc2)n1-c1ccccc1C(F)(F)F [Poloppin]
remaining binding at 50 µM (NEK1): 57%
remaining binding at 50 µM (NEK3): 72%
remaining binding at 50 µM (WNK1): 100%
remaining binding at 50 µM (NEK5): 83%
remaining binding at 50 µM (IKBKB): 100%
remaining binding at 50 µM (STK36): 91%
remaining binding at 50 µM (EIF2AK4): 100%
remaining binding at 50 µM (ERN1): 76%
IC50 (PLK1 PBD; IC50, binding of TAMRA-labeled phosphopeptide to PLK1 PBD): 26.9 µM
selectivity for PLK1-PBD over PLK2-PBD (PBD domain of human PLK2): ~3 fold
IC50 (PBD domain of human PLK2; IC50, binding of TAMRA-labelled phosphopeptide to PLK2 PBD): 88.3 µM and 88 µM
GI50 [1]: 119 µM
